Experimental data taken from PubChem BioAssay AID2060615 (Molecular Pharmacology Branch, DTP, NCI, 2025).
Values joined by “and” are separate entries in the source; they are usually repeats but may differ in a detail not shown here. Identical values can stand only once. Values belong to the compound of their own block, whether it stands above or below them.

Test system: 496974-208-R-J2-PDC complex spheroids, growth % test/control
Assay: Anticancer human tumor 496974-208-R-J2-PDC patient-derived pancreatic carcinoma cell line growth inhibition [CLK]
Details: for viability, T/C: stronger effect = lower value
From the text: A high-throughput screen of multi-cell type tumor spheroids was designed to identify active combinations of […] and targeted small molecules. Complex spheroids include a stromal component modeled by human endothelial cells (HUVEC) and fibroblasts modeled by human mesenchymal stem cells (MSCs). The concentration ranges selected for each drug and investigational agent were based upon clinically achievable concentrations if the clinical Cmax of the agent was known.
Compounds. The drugs and investigational agents: cirtuvivint (SM08502; NSC835563), CC-671 (NSC850746), vemurafenib (NSC761431), tapotoclax (NSC804041), sotorasib (NSC818433), adagrasib (NSC831453), MRTX-1133 (NSC836407), BAY2416964 (NSC825713), copanlisib (NSC816437), inavolisib (NSC800729), abemaciclib (NSC768073), osimertinib (NSC779217), entinostat (NSC756642), eltanexor (KPT-8602, NSC794443), venetoclax (NSC766270), ceralasertib (NSC777638), bortezomib (NSC756655), olaparib (NSC753686), talazoparib (NSC767125), alisertib (NSC759677), peposertib (NSC802822), gemcitabine (NSC613327), 5-fluorouracil (NSC19893), SN-38 (NSC673596), oxaliplatin (NSC266046), paclitaxel (NSC125973), and doxorubicin (NSC123127), were obtained from the National Cancer Institute (NCI) Developmental Therapeutics Program Chemical Repository. The FDA-approved anticancer drug set is available from the Developmental Therapeutics Program at https://dtp.cancer.gov/organization/dscb/obtaining/available plates.htm. […] The stock solutions were prepared in dimethyl sulfoxide (DMSO, Sigma-Aldrich, St. Louis, MO, cat. D2650), except for the platinum complexes which were prepared in saline (Quality Biological, Gaithersburg, MD, cat. 114-055-101), at 800-fold the tested concentration and stored at -70 degrees C prior to their use. All drugs and investigational agents were tested over a range starting from a high concentration at or near the clinical Cmax and decreasing in half-log increments. If the clinical Cmax for an agent had not been determined, the highest concentration tested was 10 microM.
Cell Culture. All cells were maintained in an incubator at 37 degrees C and 5% CO2 with 95% humidity. The PDC lines were cultured according to standard operating procedures established by the NCI PDMR. Briefly, all PDCs were thawed and cultured in Matrigel-coated flasks prepared with a working solution of 1X Ham's F-12 nutrient mix, without supplementation (Invitrogen, Waltham, MA, cat. 11765054), 100 U/mL penicillin-streptomycin (Invitrogen, cat. 15140122), and 2.5% Matrigel (Corning Inc., Corning, NY, cat. 354248) for the first three passages. The 947758-054-R-J2-PDC line was cultured in 6B/Colon 1A media, which includes advanced DMEM/F-12 (Thermo Fisher Scientific, cat. 12634028), 10 mM HEPES (Thermo Fisher Scientific, cat. 15630080), 1X GlutaMAX supplement (Thermo Fisher Scientific, cat. 35050061), 0.1 mg/mL primocin (InvivoGen, cat. ant-pm-2), 10% defined fetal bovine serum, heat inactivated (HyClone Laboratories Inc., cat. SH30070.03HI), 1.25 mM N-Acetyl-L-cysteine (Sigma-Aldrich, cat. A9165), 10 mM nicotinamide (Sigma-Aldrich, cat. N0636), 1X B-27 supplement (Thermo Fisher Scientific, cat. 17504044), 1X N-2 supplement (Thermo Fisher Scientific, cat. 17502048), and 10 microM Y-27632 dihydrochloride (Tocris Bioscience, cat. 1254). The 876862-298-R-J1-PDC was cultured in 6E media, which includes all 6B/Colon 1A media components plus 50% L-WRN conditioned media (ATCC, cat. CRL-3276), 50 ng/mL recombinant human EGF recombinant protein (hEGF; Thermo Fisher Scientific, cat. PHG0311), 10 ng/mL recombinant human fibroblast growth factor 10 (hGFG-10; PeproTech, cat. 100-26), 1 ng/mL recombinant human fibroblast growth factor 2 (hFGF-2; PeproTech, cat. 100-18B), and 1 µM prostaglandin E2 (PGE2; Tocris, cat. 2296). The 227483-062-R1-J1-PDC line was cultured in Panc media, containing all 6E components except hFGF-2, with the addition of 500 nM SB-431542 (Selleckchem, cat. S1067) and 10 nM gastrin (Tocris, cat. 3006). […]

[1] = curve of first compound, second compound 0.0316 µM
[2] = curve of first compound, second compound 0.1 µM
[3] = curve of first compound, second compound 0.316 µM
[4] = curve of first compound, second compound 1 µM
[5] = curve of first compound, second compound 3.16 µM
[6] = curve of first compound, second compound 10 µM
[7] = second compound 0.0316 µM, first compound 0.0316 µM
[8] = second compound 0.0316 µM, first compound 0.1 µM
[9] = second compound 0.0316 µM, first compound 0.316 µM
[10] = second compound 0.0316 µM, first compound 1 µM
[11] = second compound 0.0316 µM, first compound 3.16 µM
[12] = second compound 0.0316 µM, first compound 10 µM
[13] = second compound 0.1 µM, first compound 0.0316 µM
[14] = second compound 0.1 µM, first compound 0.1 µM
[15] = second compound 0.1 µM, first compound 0.316 µM
[16] = second compound 0.1 µM, first compound 1 µM
[17] = second compound 0.1 µM, first compound 3.16 µM
[18] = second compound 0.1 µM, first compound 10 µM
[19] = second compound 0.316 µM, first compound 0.0316 µM
[20] = second compound 0.316 µM, first compound 0.1 µM
[21] = second compound 0.316 µM, first compound 0.316 µM
[22] = second compound 0.316 µM, first compound 1 µM
[23] = second compound 0.316 µM, first compound 3.16 µM
[24] = second compound 0.316 µM, first compound 10 µM
[25] = second compound 1 µM, first compound 0.0316 µM
[26] = second compound 1 µM, first compound 0.1 µM
[27] = second compound 1 µM, first compound 0.316 µM
[28] = second compound 1 µM, first compound 1 µM
[29] = second compound 1 µM, first compound 3.16 µM
[30] = second compound 1 µM, first compound 10 µM
[31] = second compound 3.16 µM, first compound 0.0316 µM
[32] = second compound 3.16 µM, first compound 0.1 µM
[33] = second compound 3.16 µM, first compound 0.316 µM
[34] = second compound 3.16 µM, first compound 1 µM
[35] = second compound 3.16 µM, first compound 3.16 µM
[36] = second compound 3.16 µM, first compound 10 µM
[37] = second compound 10 µM, first compound 0.0316 µM
[38] = second compound 10 µM, first compound 0.1 µM
[39] = second compound 10 µM, first compound 0.316 µM
[40] = second compound 10 µM, first compound 1 µM
[41] = second compound 10 µM, first compound 3.16 µM
[42] = second compound 10 µM, first compound 10 µM
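Further: spheroids exposed to the drugs for 7 days before readout.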
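Wherever viability, T/C is given: 100% = DMSO vehicle control wells.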

IC50 (curve of compound): > 10 µM
SMILES: O=C(c1cc(Cc2n[nH]c(=O)c3ccccc23)ccc1F)N1CCN(C(=O)C2CC2)CC1
viability, T/C (compound 0.0316 µM): 99.1%
viability, T/C (compound 0.1 µM): 85.5%
viability, T/C (compound 0.316 µM): 94.7%
viability, T/C (compound 1 µM): 98.4%
viability, T/C (compound 3.16 µM): 95.2%
viability, T/C (compound 10 µM): 86.7%

IC50 (curve of compound): 6.83 µM and > 10 µM
SMILES: O=c1[nH]cc(F)c(=O)[nH]1
viability, T/C (compound 0.0316 µM): 114% and 115%
viability, T/C (compound 0.1 µM): 103% and 95.1%
viability, T/C (compound 0.316 µM): 101%
viability, T/C (compound 1 µM): 78.4% and 79.6%
viability, T/C (compound 3.16 µM): 55.1% and 71.4%
viability, T/C (compound 10 µM): 47.6% and 53.4%

The remaining lines, values behind:

SMILES: CC1(C)CCC(CN2CCN(c3ccc(C(=O)NS(=O)(=O)c4ccc(NCC5CCOCC5)c([N+](=O)[O-])c4)c(Oc4cnc5[nH]ccc5c4)c3)CC2)=C(c2ccc(Cl)cc2)C1 + CNC(=O)c1ccc(Nc2nc(OC3CCCC3)c3c(-c4ccc5nc(C)oc5c4)c[nH]c3n2)c(OC)c1
IC50 [1]: 8.41 µM
IC50 [2]: 7.09 µM
IC50 [3]: 9.3 µM
IC50 [4]: 5.67 µM
IC50 [5]: 4.11 µM
IC50 [6]: 3.9 µM
viability, T/C [7]: 87.7%
viability, T/C [8]: 93.6%
viability, T/C [9]: 86.4%
viability, T/C [10]: 92.4%
viability, T/C [11]: 84.4%
viability, T/C [12]: 43.8%
viability, T/C [13]: 75.1%
viability, T/C [14]: 73.3%
viability, T/C [15]: 76.8%
viability, T/C [16]: 82.8%
viability, T/C [17]: 72.8%
viability, T/C [18]: 39.9%
viability, T/C [19]: 75.8%
viability, T/C [20]: 76.2%
viability, T/C [21]: 73.6%
viability, T/C [22]: 85.3%
viability, T/C [23]: 71%
viability, T/C [24]: 48.5%
viability, T/C [25]: 71%
viability, T/C [26]: 71.7%
viability, T/C [27]: 73.5%
viability, T/C [28]: 67.3%
viability, T/C [29]: 61.1%
viability, T/C [30]: 39.5%
viability, T/C [31]: 59.5%
viability, T/C [32]: 56.2%
viability, T/C [33]: 61.5%
viability, T/C [34]: 62.5%
viability, T/C [35]: 52.6%
viability, T/C [36]: 35.5%
viability, T/C [37]: 55.8%
viability, T/C [38]: 55.2%
viability, T/C [39]: 54.3%
viability, T/C [40]: 50.1%
viability, T/C [41]: 54.4%
viability, T/C [42]: 32.9%

SMILES: C=CC(=O)N1CCN(c2nc(=O)n(-c3c(C)ccnc3C(C)C)c3nc(-c4c(O)cccc4F)c(F)cc23)C(C)C1 (centres undefined)
viability, T/C (compound 0.0316 µM): 112% and 102%
viability, T/C (compound 0.1 µM): 108% and 87.1%
viability, T/C (compound 0.316 µM): 109% and 91.7%
viability, T/C (compound 1 µM): 111% and 97.7%
viability, T/C (compound 3.16 µM): 107% and 108%
viability, T/C (compound 10 µM): 86.8% and 80.7%
IC50 (curve of compound): > 10 µM

SMILES: CC1(C)CCC(CN2CCN(c3ccc(C(=O)NS(=O)(=O)c4ccc(NCC5CCOCC5)c([N+](=O)[O-])c4)c(Oc4cnc5[nH]ccc5c4)c3)CC2)=C(c2ccc(Cl)cc2)C1
viability, T/C (compound 0.0316 µM): 115% and 95.7%
viability, T/C (compound 0.1 µM): 89% and 88.2%
viability, T/C (compound 0.316 µM): 99% and 101%
viability, T/C (compound 1 µM): 99.4% and 99.5%
viability, T/C (compound 3.16 µM): 96.8% and 94.7%
viability, T/C (compound 10 µM): 43.4% and 40.6%
IC50 (curve of compound): 8.67 µM and 8.19 µM

SMILES: CC(=O)O[C@H]1C(=O)[C@@]2(C)[C@H]([C@H](OC(=O)c3ccccc3)[C@]3(O)C[C@H](OC(=O)[C@H](O)[C@@H](NC(=O)c4ccccc4)c4ccccc4)C(C)=C1C3(C)C)[C@]1(OC(C)=O)CO[C@@H]1C[C@@H]2O
viability, T/C (compound 0.0316 µM): 34.8%
viability, T/C (compound 0.1 µM): 28.4%
viability, T/C (compound 0.316 µM): 30.7%
viability, T/C (compound 1 µM): 27.8%
viability, T/C (compound 3.16 µM): 38.6%
viability, T/C (compound 10 µM): 29.1%
IC50 (curve of compound): < 0.0316 µM

SMILES: C=C(F)C(=O)N1CCN(c2nc(OCC3CCCN3C)nc3c2CCN(c2cccc4cccc(Cl)c24)C3)CC1CC#N (centres undefined) + CN1CCN(c2cc(C(=O)Nc3cc4cc(-c5cnn(C)c5)ccc4cn3)ccn2)CC1
IC50 [1]: 5.32 µM
IC50 [2]: 4.44 µM
IC50 [3]: < 0.0316 µM
IC50 [4]: < 0.0316 µM
IC50 [5]: < 0.0316 µM
IC50 [6]: < 0.0316 µM
viability, T/C [7]: 107%
viability, T/C [8]: 106%
viability, T/C [9]: 89.9%
viability, T/C [10]: 117%
viability, T/C [11]: 88.8%
viability, T/C [12]: 3.02%
viability, T/C [13]: 86.1%
viability, T/C [14]: 88.8%
viability, T/C [15]: 75.8%
viability, T/C [16]: 86.6%
viability, T/C [17]: 70.8%
viability, T/C [18]: 0.72%
viability, T/C [19]: 7.07%
viability, T/C [20]: 8.92%
viability, T/C [21]: 8.59%
viability, T/C [22]: 7.85%
viability, T/C [23]: 6.67%
viability, T/C [24]: 1.1%
viability, T/C [25]: 0.58%
viability, T/C [26]: 0.48%
viability, T/C [27]: 1.51%
viability, T/C [28]: 0.33%
viability, T/C [29]: 1.52%
viability, T/C [30]: 2.06%
viability, T/C [31]: 0.33%
viability, T/C [32]: 0.52%
viability, T/C [33]: 1.57%
viability, T/C [34]: 0.45%
viability, T/C [35]: 0.2%
viability, T/C [36]: 1.09%
viability, T/C [37]: 0.35%
viability, T/C [38]: 0.35%
viability, T/C [39]: 0.31%
viability, T/C [40]: 0.32%
viability, T/C [41]: 0.74%
viability, T/C [42]: 0.22%
